Measured values taken from PMC9635468, “Biological evaluation, docking studies, and in silico ADME prediction of some pyrimidine and pyridine derivatives as potential EGFR^WT and EGFR^T790M inhibitors” (Journal of Enzyme Inhibition and Medicinal Chemistry, 2022).
Values after ≈ are worked out from the molar mass of the structure shown.

Tests used:
[1] = tested on: MCF7, H460, FADU, HEP2, HEPG2, HCT 116, Caco2, and Vero cells; test: Oxidative stress assessment (MDA, NO, SOD, GSH); assay type: cell-based; conditions: dose IC50, 48 h
Experimental: Consequently, both compounds 8 and 14 were tested for their antioxidant activity in MCF7, H460, FADU, HEP2, HEPG2, HCT 116, Caco2, and Vero cells, and the dose used was the IC50 in all cell lines.
SI 2: Oxidative stress assessment
SI 2A: Determination of malondialdehyde content (MDA)
Lipid peroxidation products were quantified by measuring MDA level in cell culture lysate of control and treated cells using Lipid Peroxidation (MDA) Assay Kit (Sigma Aldrich Chemical Co., St.
Louis, USA) following the manufacturer’s instructions. The MDA level was calculated relative to the corresponding protein content. The absorbance was determined at 532 nm using a spectrophotometer (Spectronic, Milton Roy Co., USA).
SI 2B: Determination of superoxide dismutase (SOD)
[…] in cell culture lysate of control and treated cells by SOD determination kit (Sigma Aldrich Chemical Co., St. Louis, USA) following the manufacturer’s instructions. SOD level was calculated relative to the corresponding protein content. The absorbance of the supernatant was determined at 450 nm using a spectrophotometer (Spectronic, Milton Roy Co., USA) 2. The experiment was carried out three independent times.
SI 2C: Determination of reduced glutathione (GSH) content
Reduced glutathione was determined by adopting Ellman’s method. MCF7 and LCC2 cells were harvested, the protein was precipitated with trichloroacetic acid, and Ellman’s reagent [5,5-dithiobis-(2-nitrobenzoic acid)] (Sigma Aldrich Chemical Co, St. Louis, USA) was added to the supernatant. The absorbance was read at 405 nm and total SH was calculated as µM of GSH/mg protein 3.
SI 2D: Determination of nitric oxide (NO) content
Nitric oxide was determined in the culture media of the control and treated cells a s described before
4. Briefly, 0.5 ml cold absolute ethanol was added to 250µl culture media then left for 48 h at 4 °C to attain complete protein precipitation followed by centrifugation at 13,000 rpm for 1 h using a cooling centrifuge.
100 μl of nitrate standard solution were serially diluted in duplicate in a 96 -well microplate. Then, 100 μl of vanadium chloride were added to each well rapidly followed by 50 μl sulfanilamide and 50µl n -(1-naphthyl) ethylenediamine in 2 N hydrochloric acid. The absorbance at 540 nm was measured spectrophotometrically using an ELISA microplate reader (TECAN SunriseTM, Germany) following an incubation period of 30 min. The level of total nitrite/nitrate was expressed as µM and determined using […]

HEP2 = test: Cytotoxicity screening, SRB assay, HEP2; assay type: cell-based, human; conditions: for HEP2 IC50: 48 h; for IC50: Homo sapiens, HEp-2, 48 h
Experimental: In this study, a panel of cell lines was examined for their chemosensitivity. Different concentrations of the synthesised pyridines and pyrimidine derivatives were used in this study (5, 12.5, 25, and 50 µg/mL) for all the examined cell lines. In this study, breast tumour cell line (MCF7), hepatocellular carcinoma cell line (HEPG2), larynx cell line (HEP2), lung cancer cell line (H460), colon cancer cell line (HCT116 and Caco2), hypopharyngeal cell line (FADU), and normal Vero cell line were applied. The full methodology is described in the Supplementary data (SI 1).
SI 1: Cytotoxicity screening against human cancer cell lines
In this study, a panel of cell lines was examined for their chemosensitivity. Different concentrations of the synthesized pyridines and pyrimidines derivatives were used in this study (5, 12.5, 25, and 50 µg/ml) for all the examined cell lines. The most sensitive cell line to the treatment regimen was selected and subjected to further investigations to explore the mechanism of this interaction. Human breast tumor cell line (MCF7), human hepatocellular carcinoma cell line (HEPG2), human larynx cell line (HEP2), human lung cancer cell line (H460), human colon cancer cell line (HCT116 and Caco2), human hypopharyngeal cell line (FaDu), and normal cell line Vero were used in this study. It was obtained from the American Type Culture Collection (ATCC, Minnesota, USA). The tumor cell line was maintained at National Cancer Institute (NCI), Cairo, Egypt.
The antitumor activities of pyridines and pyrimidines derivatives and all tested cell lines were evaluated by sulphorhodamine-B (SRB) assay 1. Briefly, cells were seeded at a density of 3 × 10^3 cells/well in 96-well microtiter plates. They were left to attach for 24 h before incubation with drugs. Next, cells were treated with different concentrations of 5, 12.5, 25, and 50 µg/ml for MCF7, HEPG2, HEP2, HCT116, Caco2, H460, FaDu, and Vero cells. For each concentration, three wells were used and incubation was continued for 48 h. DMSO was used as a control vehicle (1 % v/v). At the end of incubation, cells were fixed with 20 % trichloroacetic acid and stained with 0.4 % SRB dye. The optical density (O.D.) of each well was measured spectrophotometrically at 570 nm using an ELISA microplate reader (TECAN sunrise™, Germany). The mean survival fraction at each drug concentration was calculated as follows: […]
O.D. of the treated cells/O.D. of the control cells. The IC50 (concentration that produces 50% of cell growth inhibition) value of each drug was calculated using sigmoidal dose-response curve-fitting models (Graph Pad Prizm software, version 5) 1.

EGFR (T790M) = EGFR (T790M) (Homo sapiens, UniProt P00533, T790M); test: EGFR kinase (T790M) inhibition assay, Kinase-Glo MAX
EGFR (T790M), sequence (P00533 25-1210 T790M): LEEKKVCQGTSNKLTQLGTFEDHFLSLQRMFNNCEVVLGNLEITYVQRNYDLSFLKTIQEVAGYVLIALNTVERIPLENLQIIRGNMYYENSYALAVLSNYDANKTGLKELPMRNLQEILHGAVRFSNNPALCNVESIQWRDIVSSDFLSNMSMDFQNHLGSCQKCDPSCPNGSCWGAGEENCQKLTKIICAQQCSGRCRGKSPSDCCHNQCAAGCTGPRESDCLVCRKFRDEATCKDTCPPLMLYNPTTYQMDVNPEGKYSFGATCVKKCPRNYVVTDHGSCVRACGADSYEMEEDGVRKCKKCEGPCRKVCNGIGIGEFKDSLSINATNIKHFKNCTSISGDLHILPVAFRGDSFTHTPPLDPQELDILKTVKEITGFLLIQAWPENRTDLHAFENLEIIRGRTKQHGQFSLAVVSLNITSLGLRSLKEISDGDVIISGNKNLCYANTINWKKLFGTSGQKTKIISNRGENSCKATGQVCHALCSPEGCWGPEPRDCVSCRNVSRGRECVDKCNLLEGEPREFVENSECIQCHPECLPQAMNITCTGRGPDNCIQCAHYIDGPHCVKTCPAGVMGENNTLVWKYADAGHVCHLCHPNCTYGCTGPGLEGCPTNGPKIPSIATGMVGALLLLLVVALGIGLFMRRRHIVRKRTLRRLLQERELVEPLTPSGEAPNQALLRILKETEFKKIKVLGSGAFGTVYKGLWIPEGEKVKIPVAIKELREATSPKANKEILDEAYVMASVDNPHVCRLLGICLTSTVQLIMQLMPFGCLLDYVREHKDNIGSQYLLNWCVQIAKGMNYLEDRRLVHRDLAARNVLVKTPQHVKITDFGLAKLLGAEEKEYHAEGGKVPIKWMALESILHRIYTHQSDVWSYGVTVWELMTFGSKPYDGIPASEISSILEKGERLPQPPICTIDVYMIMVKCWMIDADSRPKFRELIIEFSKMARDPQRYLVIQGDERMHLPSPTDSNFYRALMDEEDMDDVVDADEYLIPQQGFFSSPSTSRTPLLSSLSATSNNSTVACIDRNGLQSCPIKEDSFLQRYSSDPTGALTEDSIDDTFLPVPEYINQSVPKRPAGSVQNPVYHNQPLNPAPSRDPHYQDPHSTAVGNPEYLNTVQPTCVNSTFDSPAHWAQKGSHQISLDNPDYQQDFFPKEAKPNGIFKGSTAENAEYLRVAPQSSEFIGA
Experimental: The reagent, Kinase-Glo MAX, was used[50], and luminescence was detected by applying the microplate reader.
The assay protocol was carried out by adding 25 μL of the master mixture: (6 μL Kinase assay buffer + 1 μL ATP (500 μM) + 1 μL PTK substrate + 17 μL water) to each well. Thereafter, 5 μL of the inhibitor solution was added to each well labeled as “test inhibitor”. Meanwhile, for the “positive control" and “blank”, 5 μL of the same solution without inhibitor (inhibitor buffer) was added. To the wells designated as "blank", add 20 μL of Kinase assay buffer. The amount of EGFR required for the assay was calculated and the enzyme was diluted to 1 ng/μL with Kinase assay buffer. The reaction was initiated by adding 20 μL of diluted EGFR enzyme to the wells designated as “positive control” and "test inhibitor control". The wells were incubated at 30°C for 40 minutes, then 50 μL of Kinase-Glo Max reagent was added to each well. The plate was incubated at room temperature for 15 minutes and luminescence was measured using the microplate reader.

| SMILES | effect on oxidative state (MDA, NO, SOD, GSH) ([1]; Caco2) | effect on oxidative state (MDA, NO, SOD, GSH) ([1]; all tested cell lines except Caco2) | HEP2 IC50 (HEP2) [µg/mL] | IC50 (HEP2) [µg/mL] | IC50 (EGFR (T790M)) [nM] | effect on oxidative state (MDA, NO, SOD, GSH) ([1]; FADU and Caco2) | effect on oxidative state (MDA, NO, SOD, GSH) ([1]; MCF7, H460, HEP2, HEPG2, HCT, and Vero cells) |
| --- | --- | --- | --- | --- | --- | --- | --- |
| Oc1n[nH]c2nc(-c3ccco3)cc(-c3cccs3)c12 [Compound 8] | antioxidant effect | pro-oxidant effect | 7.90 | 4.4 (≈ 15.5 µM) | 27 ± 2 | – | – |
| N#Cc1c(-c2cccs2)cc(-c2ccco2)[nH]c1=O [Compound 14] | – | – | 4.70 | 8 (≈ 29.8 µM) | 156 ± 9 | anti-oxidant effect | pro-oxidant effect |
